Data on 15 compounds can be found in ChEMBL document CHEMBL4354881, “Optimization of Potent ATAD2 and CECR2 Bromodomain Inhibitors with an Atypical Binding Mode” (J Med Chem, 2020).

≈ marks a conversion by molar mass, not a printed value. Where only a bound is given, the exact number is not on record here.

Series [1] concerns the target T1, Chromatin remodeling regulator CECR2 (Homo sapiens, UniProt Q9BXF3). Description: Displacement of Alexa Fluor 647-labeled GSK tracer from FLAG-6His-Tev-fused CECR2 (424 to 543 residue) (unknown origin) measured after 15 mins by TR-FRET assay. On the technique in general: TR-FRET usually uses a lanthanide donor and a delayed reading to cut background.
Series [2] deals with T2, ATPase family AAA domain-containing protein 2 (Homo sapiens, UniProt Q6PL18).
T2 sequence (Q6PL18 whole entry): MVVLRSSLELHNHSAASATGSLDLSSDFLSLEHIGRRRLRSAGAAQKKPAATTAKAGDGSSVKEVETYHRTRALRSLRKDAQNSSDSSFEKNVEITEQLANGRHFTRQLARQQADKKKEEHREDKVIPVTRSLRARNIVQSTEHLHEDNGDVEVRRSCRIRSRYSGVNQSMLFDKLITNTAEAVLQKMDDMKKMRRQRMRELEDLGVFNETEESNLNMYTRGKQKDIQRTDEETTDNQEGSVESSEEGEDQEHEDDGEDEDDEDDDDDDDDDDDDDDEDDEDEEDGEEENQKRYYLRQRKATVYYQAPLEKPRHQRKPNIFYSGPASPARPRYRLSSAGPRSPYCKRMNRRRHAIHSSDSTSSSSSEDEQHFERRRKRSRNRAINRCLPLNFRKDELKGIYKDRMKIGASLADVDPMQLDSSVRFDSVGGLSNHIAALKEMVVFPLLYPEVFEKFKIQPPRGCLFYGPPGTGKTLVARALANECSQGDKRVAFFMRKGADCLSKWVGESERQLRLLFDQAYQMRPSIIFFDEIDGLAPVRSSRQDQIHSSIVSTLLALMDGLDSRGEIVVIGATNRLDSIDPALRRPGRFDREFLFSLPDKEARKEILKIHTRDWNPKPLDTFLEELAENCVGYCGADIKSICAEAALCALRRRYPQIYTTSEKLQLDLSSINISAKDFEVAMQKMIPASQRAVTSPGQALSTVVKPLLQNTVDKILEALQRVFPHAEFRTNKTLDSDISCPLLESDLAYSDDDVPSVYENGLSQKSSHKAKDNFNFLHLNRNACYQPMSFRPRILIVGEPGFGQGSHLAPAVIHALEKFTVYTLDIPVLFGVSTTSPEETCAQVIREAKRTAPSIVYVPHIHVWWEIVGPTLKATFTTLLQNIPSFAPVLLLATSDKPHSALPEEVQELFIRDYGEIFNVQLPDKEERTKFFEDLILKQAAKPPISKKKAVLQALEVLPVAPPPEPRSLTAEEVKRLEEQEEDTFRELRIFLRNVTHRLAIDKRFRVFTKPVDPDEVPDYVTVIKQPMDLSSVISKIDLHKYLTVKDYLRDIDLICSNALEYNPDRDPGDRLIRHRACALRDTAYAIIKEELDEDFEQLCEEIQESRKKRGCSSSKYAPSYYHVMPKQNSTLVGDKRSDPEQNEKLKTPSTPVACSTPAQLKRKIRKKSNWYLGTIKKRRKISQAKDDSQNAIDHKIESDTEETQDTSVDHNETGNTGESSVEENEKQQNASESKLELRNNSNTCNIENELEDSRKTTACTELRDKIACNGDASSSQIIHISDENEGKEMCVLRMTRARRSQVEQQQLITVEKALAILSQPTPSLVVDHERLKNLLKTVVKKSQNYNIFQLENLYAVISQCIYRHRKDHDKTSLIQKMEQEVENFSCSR
The series can be described thus: Displacement of Alexa Fluor 488-labeled ligand from FLAG-6His-Tev-fused ATAD2 (981 to 1121 residue) (unknown origin) measured after 30 mins by TR-FRET assay.

Series [3] has as its target Bromodomain-containing protein 4 (Homo sapiens, UniProt O60885, Y390A). The series can be described thus: Displacement of Alexa Fluor 647-labeled ligand from BRD4 BD1 Y390A mutant (1 to 477 residue) (unknown origin) measured after 30 mins by TR-FRET assay.
Series [4] in a line: Permeability of the compound by artificial lipid membrane-based method. As to conditions: not told; read-out: permeability. It counts as ADME.
The target in series [5] is T1, Chromatin remodeling regulator CECR2. Description: Binding affinity to CECR2 (unknown origin) by ITC analysis.
The next series is filed under the species Homo sapiens. The series can be described thus: Selectivity ratio of IC50 for displacement of Alexa Fluor 488-labeled ligand from FLAG-6His-Tev-fused ATAD2 (981 to 1121 residue) (unknown origin) to IC50 for displacement of Alexa Fluor 647-labeled GSK tracer from FLAG-6His-Tev-fused CECR2 (424 to 543 residue) (unknown origin).
The nature of series [6]: Solubility of the compound by CAD method. It counts as physicochemical.
Series [7] can be described thus: Lipophilicity, log D of the compound at pH 7.4 by chromatographic method. Conditions: buffer. It counts as physicochemical.
For series [8], the target named is Bromodomain-containing protein 4 (Homo sapiens, UniProt O60885). The series can be described thus: Displacement of Alexa Fluor 647-labeled ligand from BRD4 BD2 (unknown origin) measured after 30 mins by TR-FRET assay.
Series [9] deals with Histone acetyltransferase KAT2A (Homo sapiens, UniProt Q92830). The series can be described thus: Binding affinity to human partial length GCN5L2 (E726 to K837 residues) expressed in bacterial expression system by BROMOscan assay.
The target of series [10] is T1, Chromatin remodeling regulator CECR2. The series can be described thus: Binding affinity to human partial length CECR2 (P423 to D543 residues) expressed in bacterial expression system by BROMOscan assay.
For series [11] the target is unchanged. Description: Inhibition of BSP-BODIPY binding to Nanoluc-tagged CECR2 (unknown origin) expressed in HEK293 cells measured after 4 to 6 hrs by NanoBRET assay. The series is classed as cell-based.

T1 sequence (Q9BXF3 whole entry, the tested form may be a part): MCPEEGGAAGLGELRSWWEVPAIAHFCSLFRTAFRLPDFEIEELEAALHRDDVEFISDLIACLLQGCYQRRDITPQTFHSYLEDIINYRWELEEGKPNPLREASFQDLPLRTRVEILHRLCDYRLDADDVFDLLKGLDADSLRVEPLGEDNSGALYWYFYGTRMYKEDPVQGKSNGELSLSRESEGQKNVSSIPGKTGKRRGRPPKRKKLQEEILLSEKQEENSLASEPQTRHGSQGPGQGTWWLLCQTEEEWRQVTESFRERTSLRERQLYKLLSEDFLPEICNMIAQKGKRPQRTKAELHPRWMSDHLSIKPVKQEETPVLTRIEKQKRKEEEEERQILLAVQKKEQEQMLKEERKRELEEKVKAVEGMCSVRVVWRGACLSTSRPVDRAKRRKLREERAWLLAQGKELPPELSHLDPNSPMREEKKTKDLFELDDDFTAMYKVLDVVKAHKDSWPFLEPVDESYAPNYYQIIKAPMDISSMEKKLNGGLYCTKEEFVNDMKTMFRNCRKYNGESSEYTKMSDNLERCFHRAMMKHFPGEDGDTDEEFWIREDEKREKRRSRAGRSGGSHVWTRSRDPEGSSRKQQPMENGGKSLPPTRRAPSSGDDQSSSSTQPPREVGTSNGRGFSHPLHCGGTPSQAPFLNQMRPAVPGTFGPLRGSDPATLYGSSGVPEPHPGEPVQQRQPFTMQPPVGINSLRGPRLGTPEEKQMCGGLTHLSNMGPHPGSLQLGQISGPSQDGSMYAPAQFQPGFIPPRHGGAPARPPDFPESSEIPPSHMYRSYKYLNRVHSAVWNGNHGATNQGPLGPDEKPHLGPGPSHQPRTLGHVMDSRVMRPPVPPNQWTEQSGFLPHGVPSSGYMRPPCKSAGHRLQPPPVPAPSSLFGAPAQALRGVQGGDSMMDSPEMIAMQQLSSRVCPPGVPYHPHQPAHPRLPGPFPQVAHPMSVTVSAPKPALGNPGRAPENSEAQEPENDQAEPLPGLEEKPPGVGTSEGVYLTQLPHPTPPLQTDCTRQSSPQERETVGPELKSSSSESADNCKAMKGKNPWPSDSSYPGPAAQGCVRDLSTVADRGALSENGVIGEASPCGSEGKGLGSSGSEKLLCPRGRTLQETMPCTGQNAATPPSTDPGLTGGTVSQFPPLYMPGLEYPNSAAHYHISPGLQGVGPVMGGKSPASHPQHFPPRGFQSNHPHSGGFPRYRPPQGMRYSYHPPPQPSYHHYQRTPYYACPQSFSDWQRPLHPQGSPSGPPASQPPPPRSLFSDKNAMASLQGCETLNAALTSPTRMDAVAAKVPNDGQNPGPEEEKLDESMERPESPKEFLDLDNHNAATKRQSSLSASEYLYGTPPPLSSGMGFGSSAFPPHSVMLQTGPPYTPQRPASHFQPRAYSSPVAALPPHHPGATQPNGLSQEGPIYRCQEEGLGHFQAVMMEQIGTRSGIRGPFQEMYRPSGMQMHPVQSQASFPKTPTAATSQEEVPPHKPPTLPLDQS
Histone acetyltransferase KAT2A, sequence (Q92830 whole entry, the tested form may be a part): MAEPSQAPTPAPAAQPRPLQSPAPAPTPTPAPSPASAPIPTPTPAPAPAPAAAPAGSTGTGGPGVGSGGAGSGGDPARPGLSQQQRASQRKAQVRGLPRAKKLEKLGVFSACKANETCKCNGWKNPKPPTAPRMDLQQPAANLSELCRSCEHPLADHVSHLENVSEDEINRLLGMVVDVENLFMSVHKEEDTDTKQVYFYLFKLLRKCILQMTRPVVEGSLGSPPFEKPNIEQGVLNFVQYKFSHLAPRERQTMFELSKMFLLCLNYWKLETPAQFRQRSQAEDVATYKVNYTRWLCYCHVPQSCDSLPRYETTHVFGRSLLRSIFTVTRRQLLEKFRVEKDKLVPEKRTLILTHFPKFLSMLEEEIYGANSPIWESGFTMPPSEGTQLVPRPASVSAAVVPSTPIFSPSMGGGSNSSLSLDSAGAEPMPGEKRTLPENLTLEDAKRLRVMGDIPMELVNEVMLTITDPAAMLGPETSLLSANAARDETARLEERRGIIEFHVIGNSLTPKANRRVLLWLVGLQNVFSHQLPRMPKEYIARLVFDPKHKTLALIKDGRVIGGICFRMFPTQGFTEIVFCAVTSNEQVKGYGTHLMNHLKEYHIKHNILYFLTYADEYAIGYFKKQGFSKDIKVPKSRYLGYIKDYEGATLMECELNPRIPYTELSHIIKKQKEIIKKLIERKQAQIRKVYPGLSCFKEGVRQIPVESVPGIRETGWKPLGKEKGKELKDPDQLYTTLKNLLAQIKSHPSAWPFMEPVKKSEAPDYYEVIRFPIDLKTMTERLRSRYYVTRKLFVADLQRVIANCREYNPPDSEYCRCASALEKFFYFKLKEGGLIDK

The IC50 is the point on the concentration scale where inhibition reaches its midpoint. A higher IC50 goes with weaker potency. Turning to `CC1(C2CC2)NC(=O)N(CC(=O)Nc2ccc(Cl)c(S(=O)(=O)N3CCCC3)c2)C1=O` (racemic), the IC50 is 1580 nM in series [1], 1000 nM in series [2] and > 501000 nM in series [3]. Besides, the Papp in series [4] worked out at 10 ×10⁻⁶ cm/s.
In the case of `CC1(C)NC(=O)N(CC(=O)Nc2ccc(Cl)c(S(=O)(=O)N3CCCC3)c2)C1=O`, the figures for the IC50 in series [1], in series [2] and in [3] were 5010 nM, 1580 nM and > 50100 nM, respectively. For the same compound, in [4], the Papp turned out to be 1.8 ×10⁻⁶ cm/s.
For the compound `CC1NC(=O)N(CC(=O)Nc2ccc(Cl)c(S(=O)(=O)N3CCCC3)c2)C1=O` (racemic), the IC50 in series [1] is 6310 nM; in [2], 1260 nM; in series [3] it was > 50100 nM. Also, the Papp in series [4] is 1.2 ×10⁻⁶ cm/s.
What is called Kd is the concentration at which binding is half-saturated. As for `CN(C)CCCOc1ccc(-c2cc(NCCCn3cccn3)nc(S(C)(=O)=O)n2)cc1`, in series [5], binding was put at a Kd of 10 nM.
By solubility is commonly meant the dissolved amount per volume that the medium holds. Read a high solubility as much dissolved substance. For orientation: chromatographic logD means a lipophilicity value derived from retention on a column. Read a low chromatographic logD as lower lipophilicity. Regarding `C[C@H]1CCN(S(=O)(=O)c2cc(NC(=O)Cn3nnc4c3CCN(CC(F)(F)F)C4)ccc2Br)C1`, the IC50 was 158 nM in series [1], 2510 nM in series [2] and 31600 nM in [3]. The Ratio IC50 in the series filed under Homo sapiens stood at 16. The concentration in solution in series [6] (solubility) was 49 µg/mL (≈ 86.7 µM). In [7], the chromatographic logD stood at 5.3.
Regarding `CC(=O)Nc1ccc(Cl)c(S(=O)(=O)N2CCCC2)c1`, the IC50 in series [1] is 79400 nM; in [2], 31600 nM; in series [3], 200000 nM. Also, the Papp in series [4] came out at 27 ×10⁻⁶ cm/s.
Taken in the same sequence, the figures for `O=C(CN1C(=O)COC1=O)Nc1ccc(Cl)c(S(=O)(=O)N2CCCC2)c1` were 1580 nM, 1260 nM, > 50100 nM and 5.4 ×10⁻⁶ cm/s.
Taken in the same sequence, the figures for `O=C(CN1C(=O)CCC1=O)Nc1ccc(Cl)c(S(=O)(=O)N2CCCC2)c1` were 3980 nM, 1260 nM, > 50100 nM and 4.2 ×10⁻⁶ cm/s.
As for `CN1CCc2c(nnn2CC(=O)Nc2ccc(Cl)c(S(=O)(=O)N3CC[C@H](C4CC4)C3)c2)C1`, the IC50 in [1] was 20 nM; in [2], 3160 nM; in series [8], 10000 nM; in series [3], 25100 nM; in [11], 50.1 nM. The values for the Kd in series [9] and in series [10] were 501 nM and 7.94 nM, respectively. Also, the Papp in series [4] was 11.1 ×10⁻⁶ cm/s.
`CN(C)CC1CCN(S(=O)(=O)c2cc(NC(=O)CN3C(=O)CNC3=O)ccc2Cl)C1` (stereo not drawn): the IC50 in [1] is 3980 nM; in [2] it was 1000 nM; in [3], > 50100 nM. Besides, the Papp in [4] is < 0.3 ×10⁻⁶ cm/s.
Taken in the same sequence, the figures for `O=C(CN1CCCC1=O)Nc1ccc(Cl)c(S(=O)(=O)N2CCCC2)c1` were 20000 nM, 50100 nM, > 50100 nM and 12 ×10⁻⁶ cm/s.
In the case of `CC(C)N1CCc2c(nnn2CC(=O)Nc2ccc(Br)c(S(=O)(=O)N3CC[C@H](C)C3)c2)C1`, the IC50 in [1] is 31.6 nM; in series [2], 2000 nM; in series [3] it was 50100 nM.
For `C[C@H]1CCN(S(=O)(=O)c2cc(NC(=O)Cn3c(=O)oc4ccccc43)ccc2Br)C1` the same measures were 63.1 nM, 2000 nM and 10000 nM.
Consider `CCC1CCN(S(=O)(=O)c2cc(NC(=O)CN3C(=O)CNC3=O)ccc2Cl)C1` (racemic), for which the IC50 in series [1] is 1260 nM; in series [2], 631 nM; in [3] it was > 50100 nM.
Regarding `CN1CCc2c(nnn2CC(=O)Nc2ccc(Br)c(S(=O)(=O)N3CC[C@H](C4CC4)C3)c2)C1`, the IC50 was 2000 nM in series [2], 5010 nM in [8], 12600 nM in series [3] and 39.8 nM in [11]. Further, the Kd is 158 nM in [9] and 10 nM in series [10]. Also, in series [4], the Papp was found to be 14 ×10⁻⁶ cm/s.
